The conditions of this data set: Crystal; visual observation.

± gives the expanded uncertainty stated by the source.

Take `CC=CC(=O)O` [2-butenoic acid]: the Normal melting temperature was found to be 71.7 ± 1.1 °C.

For the origin of these results see the NIST ThermoML archive (doi:10.1016/j.fluid.2013.06.038).
